Calls of active or inactive are those of the source.
Columns and labels:
cells [1] = type: functional, cell-based
cells [2] = type: functional, cell-based; remark: listed apart in the source
[3] = THP-1 cell cytotoxicity, dose response, cytotoxicity control for non-replicating M. tuberculosis project (AID 489025); type: functional
[4] = HepG2 cell cytotoxicity, dose response, cytotoxicity control for non-replicating M. tuberculosis project (AID 489018); type: functional; details: Mycobacterium tuberculosis
[5] = Vero E6 cell cytotoxicity, dose response, cytotoxicity control for non-replicating M. tuberculosis project, secondary assay (AID 492998); type: functional, VeroE6; details: Vero C1008
cells [6] = type: functional
[7] = P. falciparum Dd2 growth inhibitors, dose response, SYBR Green, cherry-picked samples (AID 1159567); type: functional, cell-based
[8] = A549 cell cytotoxicity, dose response, cytotoxicity control, plate reader, cherry-pick, antagonist series (AID 743412); type: functional, cell-based
[9] = HepG2 cell cytotoxicity, dose response, cytotoxicity control, plate reader, cherry-pick, antagonist series (AID 743416); type: functional, cell-based
[10] = LGR2 antagonists, dose response, cell-based, HEK293, CRE-luciferase reporter, cherry pick, set 2 (AID 743343); type: functional;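 also: transfected cells were stimulated with diluted bursicon conditioned medium after compound addition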
[11] = MC4R antagonists, dose response, counter-screen for LGR2 antagonist project, cell-based, plate reader, cherry pick (AID 743444); type: functional;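 also: transfected HEK 293 cells stimulated with alpha-MSH peptide; potency of inhibitors of the alpha-MSH evoked signal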
Paired box protein Pax-8 = Paired box protein Pax-8 (Homo sapiens, UniProt Q06710); experiment: inhibitors of PAX8-driven TPO luciferase reporter, dose response, RMG-I cells, cherry-pick (AID 687027); type: functional, cell-based;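 also: luciferase reporter driven by Pax8 target thyroperoxidase promoter measured by SteadyGlo luminescence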
Paired box protein Pax-8, sequence (Q06710 whole entry): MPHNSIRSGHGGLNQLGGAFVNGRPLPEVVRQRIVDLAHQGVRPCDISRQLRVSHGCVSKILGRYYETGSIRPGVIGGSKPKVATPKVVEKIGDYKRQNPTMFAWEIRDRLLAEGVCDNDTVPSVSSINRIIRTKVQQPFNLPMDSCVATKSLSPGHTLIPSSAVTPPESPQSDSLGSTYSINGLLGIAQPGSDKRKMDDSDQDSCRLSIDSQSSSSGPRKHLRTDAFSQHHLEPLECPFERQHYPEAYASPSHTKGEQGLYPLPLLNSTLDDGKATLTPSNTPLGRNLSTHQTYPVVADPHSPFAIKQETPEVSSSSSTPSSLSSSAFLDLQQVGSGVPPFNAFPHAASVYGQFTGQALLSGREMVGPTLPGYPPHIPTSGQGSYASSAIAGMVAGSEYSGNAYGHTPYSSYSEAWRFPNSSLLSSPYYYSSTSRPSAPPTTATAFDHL

[12] = NIH:OVCAR-3 ovarian cancer cell cytotoxicity, dose response, PAX8 inhibitor project, plate reader, dry powder samples (AID 743044); type: functional, cell-based
[13] = cytotoxicity in OVCAR8 ovarian cancer cells, dose response, PAX8 project, cell-based, plate reader, dry powder samples (AID 743197); type: functional; details: OVCAR-8
HEK293 = experiment: inhibitors of LMP1-driven NF-kB reporter, dose response, cell-based, HEK293, luciferase, cherry-pick (AID 588343); type: functional; details: Homo sapiens
Cytochrome P450 3A4 [14] = biological target: T1, Cytochrome P450 3A4 (Homo sapiens, UniProt P08684); details: Potency
T1 sequence (P08684 whole entry): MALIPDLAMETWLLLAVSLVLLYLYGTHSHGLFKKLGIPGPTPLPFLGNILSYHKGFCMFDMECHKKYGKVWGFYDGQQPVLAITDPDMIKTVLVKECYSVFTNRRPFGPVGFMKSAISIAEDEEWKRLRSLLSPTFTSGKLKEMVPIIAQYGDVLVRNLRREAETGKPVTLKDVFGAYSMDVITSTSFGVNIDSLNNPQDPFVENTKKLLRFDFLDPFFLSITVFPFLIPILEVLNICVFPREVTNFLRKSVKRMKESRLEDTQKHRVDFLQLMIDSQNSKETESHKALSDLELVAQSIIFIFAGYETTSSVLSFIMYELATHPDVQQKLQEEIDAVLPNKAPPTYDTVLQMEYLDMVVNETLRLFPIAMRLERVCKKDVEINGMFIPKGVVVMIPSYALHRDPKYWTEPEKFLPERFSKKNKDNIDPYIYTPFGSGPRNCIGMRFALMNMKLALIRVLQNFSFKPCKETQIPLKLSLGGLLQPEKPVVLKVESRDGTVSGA

[15] = biological target: Voltage-dependent T-type calcium channel subunit alpha-1H (Homo sapiens, UniProt O95180); type: functional;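 also: channel activity triggered by adding a high calcium stimulation buffer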
Voltage-dependent T-type calcium channel subunit alpha-1H, sequence (O95180 whole entry): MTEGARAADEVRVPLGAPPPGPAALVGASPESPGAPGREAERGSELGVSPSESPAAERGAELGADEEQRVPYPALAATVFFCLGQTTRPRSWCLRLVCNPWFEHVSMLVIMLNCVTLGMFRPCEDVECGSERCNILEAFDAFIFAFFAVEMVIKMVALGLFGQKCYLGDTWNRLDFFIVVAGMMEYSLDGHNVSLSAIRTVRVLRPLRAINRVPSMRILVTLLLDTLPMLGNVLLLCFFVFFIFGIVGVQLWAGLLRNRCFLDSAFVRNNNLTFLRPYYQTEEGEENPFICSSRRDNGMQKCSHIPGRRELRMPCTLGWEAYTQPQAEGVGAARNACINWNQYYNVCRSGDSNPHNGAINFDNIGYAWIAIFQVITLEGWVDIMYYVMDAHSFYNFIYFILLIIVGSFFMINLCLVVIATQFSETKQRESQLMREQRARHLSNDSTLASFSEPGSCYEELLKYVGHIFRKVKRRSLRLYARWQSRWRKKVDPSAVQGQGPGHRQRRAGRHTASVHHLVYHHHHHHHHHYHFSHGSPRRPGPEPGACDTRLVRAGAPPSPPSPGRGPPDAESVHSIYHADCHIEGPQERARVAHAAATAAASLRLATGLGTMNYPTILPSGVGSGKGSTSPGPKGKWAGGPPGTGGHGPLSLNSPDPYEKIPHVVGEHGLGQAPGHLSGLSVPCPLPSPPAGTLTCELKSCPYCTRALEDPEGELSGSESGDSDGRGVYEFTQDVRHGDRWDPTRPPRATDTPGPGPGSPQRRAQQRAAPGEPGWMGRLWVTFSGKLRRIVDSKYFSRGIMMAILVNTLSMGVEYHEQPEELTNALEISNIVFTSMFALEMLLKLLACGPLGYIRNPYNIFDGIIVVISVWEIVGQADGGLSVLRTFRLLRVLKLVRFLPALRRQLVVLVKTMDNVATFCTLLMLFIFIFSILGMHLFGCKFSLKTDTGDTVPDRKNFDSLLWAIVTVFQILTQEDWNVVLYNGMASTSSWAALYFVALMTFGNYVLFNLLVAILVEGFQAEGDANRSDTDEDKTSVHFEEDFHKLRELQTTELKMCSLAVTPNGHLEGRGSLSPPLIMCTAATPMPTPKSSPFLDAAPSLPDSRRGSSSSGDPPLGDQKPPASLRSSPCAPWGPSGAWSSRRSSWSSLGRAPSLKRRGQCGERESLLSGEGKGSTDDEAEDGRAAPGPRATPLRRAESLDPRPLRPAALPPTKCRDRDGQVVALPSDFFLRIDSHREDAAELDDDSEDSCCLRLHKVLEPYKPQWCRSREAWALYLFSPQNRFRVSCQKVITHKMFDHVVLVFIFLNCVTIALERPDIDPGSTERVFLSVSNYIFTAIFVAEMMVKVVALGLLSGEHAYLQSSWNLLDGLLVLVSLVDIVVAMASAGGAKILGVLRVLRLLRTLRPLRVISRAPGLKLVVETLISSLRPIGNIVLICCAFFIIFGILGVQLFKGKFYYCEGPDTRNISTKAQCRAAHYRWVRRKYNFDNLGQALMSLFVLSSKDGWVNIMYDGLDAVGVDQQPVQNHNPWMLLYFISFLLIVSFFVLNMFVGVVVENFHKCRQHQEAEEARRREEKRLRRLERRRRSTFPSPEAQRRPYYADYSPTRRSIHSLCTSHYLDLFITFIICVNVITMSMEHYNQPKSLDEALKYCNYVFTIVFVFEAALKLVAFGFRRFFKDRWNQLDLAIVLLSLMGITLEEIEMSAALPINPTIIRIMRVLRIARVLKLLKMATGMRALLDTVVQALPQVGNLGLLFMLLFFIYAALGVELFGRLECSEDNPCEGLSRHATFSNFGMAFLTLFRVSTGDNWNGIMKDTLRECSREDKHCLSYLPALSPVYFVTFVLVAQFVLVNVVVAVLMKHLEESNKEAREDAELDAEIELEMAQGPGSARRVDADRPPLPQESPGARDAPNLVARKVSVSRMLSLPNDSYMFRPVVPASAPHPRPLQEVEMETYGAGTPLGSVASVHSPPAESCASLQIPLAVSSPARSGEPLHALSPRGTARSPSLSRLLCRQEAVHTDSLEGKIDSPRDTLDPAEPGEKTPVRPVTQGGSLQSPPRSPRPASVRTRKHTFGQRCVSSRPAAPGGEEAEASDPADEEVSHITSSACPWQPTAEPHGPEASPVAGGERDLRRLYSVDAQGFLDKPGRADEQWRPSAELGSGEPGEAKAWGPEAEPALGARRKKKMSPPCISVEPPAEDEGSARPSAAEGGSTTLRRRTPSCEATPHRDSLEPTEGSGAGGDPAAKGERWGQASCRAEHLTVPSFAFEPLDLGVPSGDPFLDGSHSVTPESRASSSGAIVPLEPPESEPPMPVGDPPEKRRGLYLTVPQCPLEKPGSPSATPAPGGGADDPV

[16] = growth suppression of PTEN-null colon cells, dose response, cell-based, HCT116 PTEN knockout (AID 1047); type: functional;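 also: HCT116 colon tumor cells with PTEN knocked out; cells exposed to compound for 60 hours before readout; potency for loss of cell viability measured by luminescence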
[17] = growth suppression of beta-catenin-knockout colon cells, dose response, cell-based, HCT116, human colon tumor (AID 1045); type: functional;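 also: HCT116 colon tumor cells with beta catenin knocked out; cells exposed to compound for 60 hours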
[18] = Luminescence Cell-Based Dose Retest to Confirm Inhibitors of Cancer Stem Cells. [Related pubchem assays (depositor defined):AID2717, AID2721]; type: functional; details: Homo sapiens
[19] = biological target: T2, Ubiquitin-conjugating enzyme E2 N (Homo sapiens, UniProt P61088); type: functional;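 also: Dose-response confirmation in a TR-FRET assay detecting UBC13-driven polyubiquitin chain formation, inhibition measured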
T2 sequence (P61088 whole entry): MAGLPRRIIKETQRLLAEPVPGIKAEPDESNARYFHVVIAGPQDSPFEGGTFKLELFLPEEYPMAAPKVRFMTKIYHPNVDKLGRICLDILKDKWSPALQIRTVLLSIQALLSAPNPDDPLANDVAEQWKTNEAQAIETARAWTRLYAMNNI

[20] = Shn3 3'UTR reporter inhibitors, dose response, cell-based, Clone20 osteoblasts, firefly luciferase, cherry-picked (AID 624132); type: functional;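 also: firefly luciferase luminescence from reporter carrying the Shn3 3'UTR in osteoblasts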
[21] = HepG2 cell cytotoxicity, dose response, cytotoxicity control for Shn3 inhibitor project, CellTiter-Glo, cherry-picked (AID 624134); type: functional, cell-based
[22] = control 3'UTR Renilla luciferase suppression, dose response, counter-screen for Shn3 inhibitor project, cell-based, Clone20-Shn3RL, cherry-picked (AID 624133); type: functional
H9c2 = experiment: cells; type: functional, cell-based; details: Rattus norvegicus, H9c2, Myocardium;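 also: confirmatory concentration-response retest of ultra-high-throughput screening hits for modulation of myocardial damage; cell death induced by hydrogen peroxide oxidative stress; compound pretreatment for 60 min then peroxide exposure for 2 h; potency is for protecting the cells against peroxide damage rather than for killing them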
Cytochrome P450 1A2 = biological target: T3, Cytochrome P450 1A2 (Homo sapiens, UniProt P05177);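 also: PubChem cytochrome P450 panel assay, CYP1A2 panel member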
T3 sequence (P05177 whole entry): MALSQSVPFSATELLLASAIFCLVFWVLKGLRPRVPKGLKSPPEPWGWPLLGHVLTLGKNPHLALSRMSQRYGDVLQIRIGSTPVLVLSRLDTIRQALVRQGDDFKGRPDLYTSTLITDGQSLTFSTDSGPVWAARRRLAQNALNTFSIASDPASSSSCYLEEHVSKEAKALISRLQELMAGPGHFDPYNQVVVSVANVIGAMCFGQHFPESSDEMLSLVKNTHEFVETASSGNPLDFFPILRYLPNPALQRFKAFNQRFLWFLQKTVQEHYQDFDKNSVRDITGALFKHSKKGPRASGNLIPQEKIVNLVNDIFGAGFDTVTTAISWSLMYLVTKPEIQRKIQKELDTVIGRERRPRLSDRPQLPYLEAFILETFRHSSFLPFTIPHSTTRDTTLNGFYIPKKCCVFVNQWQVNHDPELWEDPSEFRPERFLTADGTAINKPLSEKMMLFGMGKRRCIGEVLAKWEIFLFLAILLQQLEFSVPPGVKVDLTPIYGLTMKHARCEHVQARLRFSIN

[23] = system: Streptococcus sp. 'group A'; experiment: growth inhibition of control SK(-) GAS strain, dose response, counter-screen for streptokinase expression inhibitor project, luminescence, kanamycin, BacTiterGlo, confirmation (AID 1900); type: functional, organism-based
Streptokinase A = biological target: T4, Streptokinase A (Streptococcus pyogenes serotype M1, UniProt P10520); experiment: S. pyogenes streptokinase expression inhibitors, potency, dose response, plasminogen activation absorbance, OD405 (AID 1914); type: functional, Streptococcus pyogenes M1 GAS;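 also: secreted streptokinase activity via plasminogen activation per viability signal from cell pellet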
T4 sequence (P10520 whole entry): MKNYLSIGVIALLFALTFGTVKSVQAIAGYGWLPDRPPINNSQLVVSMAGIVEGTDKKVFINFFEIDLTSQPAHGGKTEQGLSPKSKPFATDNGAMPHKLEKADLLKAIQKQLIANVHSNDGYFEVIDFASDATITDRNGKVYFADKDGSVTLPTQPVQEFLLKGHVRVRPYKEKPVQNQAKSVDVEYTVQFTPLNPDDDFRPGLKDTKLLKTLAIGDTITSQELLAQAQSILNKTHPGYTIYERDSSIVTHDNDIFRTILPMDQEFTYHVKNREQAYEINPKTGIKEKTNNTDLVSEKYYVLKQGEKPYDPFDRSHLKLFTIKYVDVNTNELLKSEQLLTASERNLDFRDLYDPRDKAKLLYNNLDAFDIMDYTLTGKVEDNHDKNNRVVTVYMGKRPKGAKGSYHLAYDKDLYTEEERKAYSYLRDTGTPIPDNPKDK

[24] = microbe, parasite or virus in culture; type: functional; details: Mycobacterium tuberculosis
Streptococcus = experiment: Group A Streptococcus viability loss, dose response, counter-screen for streptokinase expression inhibitor project, luminescence, BacTiterGlo (AID 1915); type: functional, organism-based;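 also: potency for reduction of bacterial viability or growth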
Cytochrome P450 2D6 = Cytochrome P450 2D6 (Homo sapiens, UniProt P10635);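 also: CYP2D6 member of a cytochrome P450 panel assay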
Cytochrome P450 2D6, sequence (P10635 whole entry): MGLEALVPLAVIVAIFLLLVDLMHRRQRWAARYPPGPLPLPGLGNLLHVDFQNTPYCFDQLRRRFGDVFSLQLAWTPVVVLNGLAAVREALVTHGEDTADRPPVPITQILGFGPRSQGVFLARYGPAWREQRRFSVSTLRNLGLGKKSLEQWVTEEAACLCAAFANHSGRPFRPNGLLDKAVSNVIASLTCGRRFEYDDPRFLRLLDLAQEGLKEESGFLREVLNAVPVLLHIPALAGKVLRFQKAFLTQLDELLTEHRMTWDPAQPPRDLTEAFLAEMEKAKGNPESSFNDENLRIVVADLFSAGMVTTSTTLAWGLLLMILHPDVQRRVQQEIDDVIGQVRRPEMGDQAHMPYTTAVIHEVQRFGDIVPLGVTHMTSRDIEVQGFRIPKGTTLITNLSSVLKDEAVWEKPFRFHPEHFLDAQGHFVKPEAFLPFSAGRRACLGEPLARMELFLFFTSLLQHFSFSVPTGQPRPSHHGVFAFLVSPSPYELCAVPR

Cytochrome P450 3A4 [25] = biological target: T1, Cytochrome P450 3A4

COc1ccc(CCNC(=O)c2cc(-c3cccs3)on2)cc1OC
EC50 (cells [1]): > 350 µM (not active)
EC50 (cells [2]): > 350 µM (not active)

Cn1c(=O)c(C(=O)Nc2ccccn2)c(O)c2ccccc21
CC50 [3]: 19 µM (active)
CC50 [4]: > 20 µM (active)
CC50 [5]: 11.3 µM (active)
IC50 (cells [6]): 11.1 µM (active)

O=C(Cc1cccnc1)N1CC[C@H]2[C@H](CO)Nc3ccc(C#Cc4cccc(F)c4)cc3[C@H]21
AC50 [7]: 6.12 µM (active)

O=C(NC(=S)NCCc1ccccc1)c1ccccc1
CC50 [4]: > 20 µM (active)

Cc1ccc(-n2nnc(-c3nccn3C)n2)cc1
AC50 [8]: > 52 µM (inactive)
AC50 [9]: > 52 µM (inactive)
AC50 [10]: 5.3 µM (active)
AC50 [11]: 6.81 µM (active)

C[C@@H]1CN([C@@H](C)CO)C(=O)c2cc(NS(=O)(=O)c3cccs3)ccc2O[C@@H](C)CCCCO[C@H]1CN(C)Cc1ccc(C(F)(F)F)cc1
AC50 (Paired box protein Pax-8): 25.2 µM (active)
AC50 [12]: 44 µM (active)

COc1ccc(S(=O)(=O)Nc2ccc3c(c2)C(=O)N([C@H](C)CO)C[C@@H](C)[C@H](CN(C)S(=O)(=O)c2ccc(F)cc2)OCCCC[C@H](C)O3)cc1
AC50 (Paired box protein Pax-8): 4.65 µM (active)
AC50 [13]: > 70 µM (inactive)

O=C(NCc1ccc(F)cc1)C1CCN(S(=O)(=O)N2CCOCC2)CC1
EC50 (cells [1]): > 350 µM (not active)
EC50 (cells [2]): > 350 µM (not active)

Clc1ccc(-n2ncc3c(N4CCCC4)ncnc32)cc1
AC50 (HEK293): 1.32 µM (active)
AC50 [10]: 2.04 µM (active)
AC50 [11]: 2.7 µM (active)

O=C1CN(c2ccccc2)C(=O)N1
EC50 (cells [1]): > 350 µM (not active)
EC50 (cells [2]): > 350 µM (not active)

O=C(NC(=S)Nc1ccccn1)c1cccc([N+](=O)[O-])c1
EC50 (cells [1]): > 350 µM (not active)
EC50 (cells [2]): > 350 µM (not active)

CCCCCn1c(=O)c(C(=O)Nc2nc(CC(=O)OCC)cs2)c(O)c2ccccc21
CC50 [3]: 11.1 µM (active)
CC50 [4]: > 20 µM (active)
CC50 [5]: 11.8 µM (active)
IC50 (cells [6]): 2.79 µM (active)

COc1ccc(-c2c(O)c3c(OC)c4c(cc3oc2=O)OC(C)(C)CC4)cc1 [DIHYDROROBUSTIC ACID]
AC50 (Cytochrome P450 3A4 [14]): 25.1 µM (inconclusive)

O=c1c(O)c(-c2ccccc2)oc2cccc(O)c12
AC50 (Cytochrome P450 3A4 [14]): 12.6 µM (inconclusive)

Nc1cc(=O)[nH]c(=O)n1Cc1ccccc1
AC50 (Cytochrome P450 3A4 [14]): 25.1 µM (inconclusive)

O=C(CCc1ccccc1)N1CCN(c2ccc(Cl)cc2)CC1
EC50 [15]: 4.01 µM (active)

CCc1nc(N2[C@H](C#N)[C@H](c3ccccc3-c3ccccc3F)[C@H]2CO)sc1C
AC50 [7]: 7.33 µM (active)

CC(C)(C)c1ccc(C(=O)NCCCN2CCN(CCCNC(=O)c3ccc(C(C)(C)C)cc3)CC2)cc1
EC50 [16]: 27.9 µM (active)
EC50 [17]: 5.18 µM (active)
AC50 [18]: 6.71 µM (active)
IC50 [19]: > 20 µM (inactive)
AC50 [20]: 4.84 µM (active)
AC50 [21]: 15.2 µM (active)
AC50 [22]: 1.62 µM (active)

Cc1nn(Cc2ccccc2)c(Cl)c1C(=O)OCc1nnc(-c2ccccc2)o1
EC50 [15]: 30.4 µM (active)

CCCn1c(-c2ccc(F)cc2)nc2c(NCCN3CCCCC3)nc(C)nc21
AC50 (Cytochrome P450 3A4 [14]): 15.8 µM (inconclusive)

O=C(NCCSc1c[nH]c2ccccc12)c1ccc(Br)o1
EC50 (cells [1]): > 350 µM (not active)
EC50 (cells [2]): > 350 µM (not active)

COc1ccccc1-c1ccc2c(c1)[C@H]1[C@H](CCN1C(=O)C1CCCC1)[C@@H](CO)N2
AC50 [7]: 4.88 µM (active)

Nc1ccn([C@@H]2O[C@H](CO)[C@@H](OP(=O)(O)O)[C@H]2O)c(=O)n1
AC50 (Cytochrome P450 3A4 [14]): 7.94 µM (inconclusive)

COCCCn1c(N)c(C(=O)Nc2sc3c(c2C(=O)OC)CCCC3)c2nc3ccccc3nc21
EC50 [16]: 27.8 µM (active)
EC50 [17]: 33.9 µM (active)
IC50 (H9c2): > 79 µM (inactive)
AC50 (Cytochrome P450 1A2): 10 µM (inconclusive)

COc1ccc(S(=O)(=O)N(Cc2ccccc2)Cc2nc(-c3ccccc3)no2)cc1
EC50 [15]: 6.27 µM (active)

CC(C)(C)[S@@+]([O-])N1Cc2cc(C(=O)NCCN3CCCCC3)nc(-c3cccc(-c4cccc(C#N)c4)c3)c2[C@H]1CCO
AC50 [7]: 7.56 µM (active)

CCn1ncc(C2=NOC(C(=O)Nc3ccc4c(c3)OCO4)C2)c1C (configuration not stated)
EC50 (cells [1]): > 350 µM (not active)
EC50 (cells [2]): > 350 µM (not active)

C/C=C/OC(=O)NC(c1cccc(C)c1)[C@@]1(C(=O)OCC)CCCC1=O (some centres not stated)
AC50 (Cytochrome P450 3A4 [14]): 1.26 µM (inconclusive)

O=[N+]([O-])c1ccc2[nH]cnc2c1
AC50 (Cytochrome P450 3A4 [14]): 25.1 µM (inconclusive)

Cc1nn(-c2nc3ccccc3[nH]2)c(N)c1-c1ccc(Cl)cc1
EC50 [23]: 2.42 µM (active)
EC50 (Streptokinase A): > 150 µM (not active)
CC50 [24]: 31.1 µM (active)
EC50 (Streptococcus): 8.49 µM (active)
CC50 [3]: 25.8 µM (active)
CC50 [4]: 16.2 µM (active)
CC50 [5]: 17.2 µM (active)
IC50 (cells [6]): 1.23 µM (active)
AC50 (Cytochrome P450 2D6): 12.6 µM (inconclusive)
AC50 (Cytochrome P450 3A4 [25]): 25.1 µM (inconclusive)
